For the test, the system named is L1210 leukemia ip in BDF1 mice, survival T/C. Kind of test: NCI In Vivo Anticancer Drug Screen. Data for tumor model L1210 Leukemia (intraperitoneal) in B6D2F1 (BDF1) mice. The following applies: higher = longer survival. The method, boiled down:
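Tumor cells were implanted, animals were treated, and survival was followed. The result divides the treated measurement by the vehicle-control measurement.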

Structures are written as SMILES. Several values for one entry are separate records, joined by “and”; a condition that tells them apart may be missing. Equal values may be shown once. Toxic doses and inconclusive results are not listed.

This is an account of results in PubChem BioAssay AID248 (DTP/NCI, 2004).

Consider `NC(Cc1ccc(N(CCCl)CCCl)cc1)C(=O)O` (configuration not stated), for which the T/C was 110 % of control (endpoint: mean survival time, dose: 0.32 mg/kg/injection, schedule: Q01DX Z (ip), vehicle: carboxymethylcellulose (CMC)); 111 % of control (endpoint: mean survival time, dose: 0.37 mg/kg/injection, schedule: Q01DX Z (im), vehicle: saline); 111 % of control (endpoint: mean survival time, dose: 0.37 mg/kg/injection, schedule: Q01DX Z (ip), vehicle: saline); 104 % of control (endpoint: mean survival time, dose: 0.37 mg/kg/injection, schedule: Q01DX Z (sc), vehicle: saline); 122 % of control and 123 % of control (endpoint: mean survival time, dose: 0.5 mg/kg/injection, schedule: Q01DX010 (ip), vehicle: alkali diluted with saline); 119 % of control (endpoint: mean survival time, dose: 0.51 mg/kg/injection, schedule: Q01DX Z (ip), vehicle: carboxymethylcellulose (CMC)). For the same molecule, the T/C reads like this: (endpoint: mean survival time, dose: 0.64 mg/kg/injection, schedule: Q01DX Z (ip), vehicle: carboxymethylcellulose (CMC)) 122 % of control; (endpoint: mean survival time, dose: 0.75 mg/kg/injection, schedule: Q01DX Z (im), vehicle: saline) 122 % of control; (endpoint: mean survival time, dose: 0.75 mg/kg/injection, schedule: Q01DX Z (ip), vehicle: saline) 115 % of control; (endpoint: mean survival time, dose: 0.75 mg/kg/injection, schedule: Q01DX Z (sc), vehicle: saline) 113 % of control; (endpoint: mean survival time, dose: 1.0 mg/kg/injection, schedule: Q01DX010 (ip), vehicle: alkali diluted with saline) 123 % of control; (endpoint: mean survival time, dose: 1.0 mg/kg/injection, schedule: Q01DX Z (ip), vehicle: methylcellulose (MC)) 151 % of control. In addition, the T/C runs as follows: (endpoint: mean survival time, dose: 1.25 mg/kg/injection, schedule: Q01DX010 (ip), vehicle: saline) 118 % of control; (endpoint: mean survival time, dose: 1.28 mg/kg/injection, schedule: Q01DX Z (ip), vehicle: carboxymethylcellulose (CMC)) 151 % of control; (endpoint: mean survival time, dose: 1.5 mg/kg/injection, schedule: Q01DX Z (sc), vehicle: saline) 119 % of control; (endpoint: mean survival time, dose: 2.5 mg/kg/injection, schedule: Q01DX009 (ip), vehicle: saline) 123 % of control and 124 % of control; (endpoint: mean survival time, dose: 2.56 mg/kg/injection, schedule: Q01DX Z (ip), vehicle: carboxymethylcellulose (CMC)) 166 % of control; (endpoint: mean survival time, dose: 3.0 mg/kg/injection, schedule: Q01DX006 (iv), vehicle: saline) 119 % of control. Also, the T/C reads like this: (endpoint: mean survival time, dose: 3.0 mg/kg/injection, schedule: Q01DX Z (im), vehicle: saline) 166 % of control and 176 % of control; (endpoint: mean survival time, dose: 3.0 mg/kg/injection, schedule: Q01DX Z (ip), vehicle: saline) 150 % of control and 201 % of control; (endpoint: mean survival time, dose: 3.0 mg/kg/injection, schedule: Q01DX Z (sc), vehicle: saline) 161 % of control; (endpoint: mean survival time, dose: 3.2 mg/kg/injection, schedule: Q01DX Z (ip), vehicle: saline) 113 % of control; (endpoint: mean survival time, dose: 4.0 mg/kg/injection, schedule: Q01DX009 (ip), vehicle: saline) 187 % of control and 200 % of control; (endpoint: mean survival time, dose: 5.0 mg/kg/injection, schedule: Q01DX009 (ip), vehicle: saline) 167 % of control. In addition, the T/C (endpoint: mean survival time, dose: 5.0 mg/kg/injection, schedule: Q01DX010 (ip), vehicle: saline) was 152 % of control; the T/C (endpoint: mean survival time, dose: 6.0 mg/kg/injection, schedule: Q01DX006 (iv), vehicle: saline) was 114 % of control; the T/C (endpoint: mean survival time, dose: 6.0 mg/kg/injection, schedule: Q01DX Z (im), vehicle: saline) is 154 % of control; the T/C (endpoint: mean survival time, dose: 6.0 mg/kg/injection, schedule: Q01DX Z (ip), vehicle: saline) was 164 % of control; the T/C (endpoint: mean survival time, dose: 6.0 mg/kg/injection, schedule: Q01DX Z (sc), vehicle: saline) is 185 % of control; the T/C (endpoint: mean survival time, dose: 6.3 mg/kg/injection, schedule: Q01DX Z (ip), vehicle: saline) was 86 % of control. The T/C was 181 % of control (endpoint: mean survival time, dose: 8.0 mg/kg/injection, schedule: Q01DX001 (ip), vehicle: carboxymethylcellulose (CMC)); 111 % of control and 122 % of control (endpoint: mean survival time, dose: 8.0 mg/kg/injection, schedule: Q01DX009 (ip), vehicle: saline); 167 % of control and 193 % of control (endpoint: mean survival time, dose: 10.0 mg/kg/injection, schedule: Q01DX009 (ip), vehicle: saline); 177 % of control (endpoint: mean survival time, dose: 10.0 mg/kg/injection, schedule: Q01DX010 (ip), vehicle: saline); 253 % of control (endpoint: mean survival time, dose: 12.0 mg/kg/injection, schedule: Q01DX001 (ip), vehicle: carboxymethylcellulose (CMC)); 123 % of control (endpoint: mean survival time, dose: 12.0 mg/kg/injection, schedule: Q01DX006 (iv), vehicle: saline). Further, the T/C is, setting by setting: (endpoint: mean survival time, dose: 12.0 mg/kg/injection, schedule: Q01DX Z (oral), vehicle: saline) 90 % of control; (endpoint: mean survival time, dose: 12.0 mg/kg/injection, schedule: Q01DX Z (sc), vehicle: saline) 111 % of control; (endpoint: mean survival time, dose: 15.0 mg/kg/injection, schedule: Q01DX Z (ip), vehicle: carboxymethylcellulose (CMC)) 172 % of control; (endpoint: mean survival time, dose: 16.0 mg/kg/injection, schedule: Q01DX009 (ip), vehicle: saline) 93 % of control; (endpoint: mean survival time, dose: 16.0 mg/kg/injection, schedule: Q01DX Z (ip), vehicle: methylcellulose (MC)) 90 % of control; (endpoint: mean survival time, dose: 18.0 mg/kg/injection, schedule: Q01DX001 (ip), vehicle: carboxymethylcellulose (CMC)) 341 % of control. Besides, the T/C is 202 % of control and 233 % of control (endpoint: mean survival time, dose: 18.0 mg/kg/injection, schedule: Q01DX001 (ip), vehicle: saline); 94 % of control (endpoint: mean survival time, dose: 20.0 mg/kg/injection, schedule: Q01DX009 (ip), vehicle: saline); 117 % of control (endpoint: mean survival time, dose: 20.0 mg/kg/injection, schedule: Q01DX010 (ip), vehicle: saline); 87 % of control (endpoint: mean survival time, dose: 22.0 mg/kg/injection, schedule: Q01DX Z (ip), vehicle: carboxymethylcellulose (CMC)); 123 % of control (endpoint: mean survival time, dose: 24.0 mg/kg/injection, schedule: Q01DX006 (iv), vehicle: saline); 118 % of control and 229 % of control and 230 % of control (endpoint: mean survival time, dose: 25.0 mg/kg/injection, schedule: Q01DX001 (ip), vehicle: saline). Also, the T/C is, setting by setting: (endpoint: mean survival time, dose: 35.0 mg/kg/injection, schedule: Q01DX001 (ip), vehicle: saline) 161 % of control and 240 % of control; (endpoint: mean survival time, dose: 50.0 mg/kg/injection, schedule: Q01DX001 (ip), vehicle: saline) 87 % of control; (endpoint: median survival time, dose: 10.0 mg/kg/injection, schedule: Q01DX009 (ip), vehicle: saline) 155 % of control and 156 % of control; (endpoint: median survival time, dose: 20.0 mg/kg/injection, schedule: Q01DX009 (ip), vehicle: saline) 112 % of control.
Consider `O=C(O)c1ccc2c(=O)[nH][nH]c(=O)c2c1`, for which the T/C reads like this: (endpoint: mean survival time, dose: 87.5 mg/kg/injection, schedule: Q01DX009 (ip), vehicle: Klucel (hydroxypropylcellulose) (HPC)) 101 % of control; (endpoint: mean survival time, dose: 175.0 mg/kg/injection, schedule: Q01DX009 (ip), vehicle: Klucel (hydroxypropylcellulose) (HPC)) 96 % of control; (endpoint: mean survival time, dose: 350.0 mg/kg/injection, schedule: Q01DX009 (ip), vehicle: Klucel (hydroxypropylcellulose) (HPC)) 102 % of control.
As to `CP(C)(=S)P(C)(C)=S`, the T/C by setting is: (endpoint: mean survival time, dose: 25.0 mg/kg/injection, schedule: Q04DX002 (ip), vehicle: Klucel (hydroxypropylcellulose) (HPC)) 98 % of control; (endpoint: mean survival time, dose: 50.0 mg/kg/injection, schedule: Q04DX002 (ip), vehicle: Klucel (hydroxypropylcellulose) (HPC)) 94 % of control; (endpoint: mean survival time, dose: 100.0 mg/kg/injection, schedule: Q04DX002 (ip), vehicle: Klucel (hydroxypropylcellulose) (HPC)) 95 % of control and 112 % of control.
With `CC1(C)OB(C(B2OC(C)(C)C(C)(C)O2)=C(CCl)CCl)OC1(C)C`, the T/C (endpoint: mean survival time, dose: 100.0 mg/kg/injection, schedule: Q01DX001 (ip), vehicle: Klucel (hydroxypropylcellulose) (HPC)) is 101 % of control; the T/C (endpoint: mean survival time, dose: 200.0 mg/kg/injection, schedule: Q01DX001 (ip), vehicle: Klucel (hydroxypropylcellulose) (HPC)) is 88 % of control; the T/C (endpoint: mean survival time, dose: 400.0 mg/kg/injection, schedule: Q01DX001 (ip), vehicle: Klucel (hydroxypropylcellulose) (HPC)) is 103 % of control.
Turning to `CC1c2cc(C(=O)O)ccc2OC1(C)C` (configuration not stated), the T/C by setting is: (endpoint: mean survival time, dose: 100.0 mg/kg/injection, schedule: Q01DX001 (ip), vehicle: saline) 96 % of control; (endpoint: mean survival time, dose: 200.0 mg/kg/injection, schedule: Q01DX001 (ip), vehicle: saline) 102 % of control; (endpoint: mean survival time, dose: 400.0 mg/kg/injection, schedule: Q01DX001 (ip), vehicle: saline) 91 % of control.
`CC1CN(C(=N)C#N)C(C)CN1C(=N)C#N` (configuration not stated): the T/C (endpoint: mean survival time, dose: 100.0 mg/kg/injection, schedule: Q01DX009 (ip), vehicle: saline with Tween-80) is 92 % of control; the T/C (endpoint: mean survival time, dose: 100.0 mg/kg/injection, schedule: Q04DX003 (ip), vehicle: saline with Tween-80) is 109 % of control; the T/C (endpoint: mean survival time, dose: 200.0 mg/kg/injection, schedule: Q04DX003 (ip), vehicle: saline with Tween-80) is 104 % of control.
Consider `COc1ccc(NC(=O)Oc2ccc(C(C)=O)cc2)cc1`, for which the T/C is 100 % of control (endpoint: mean survival time, dose: 25.0 mg/kg/injection, schedule: Q01DX009 (ip), vehicle: Klucel (hydroxypropylcellulose) (HPC)); 94 % of control (endpoint: mean survival time, dose: 50.0 mg/kg/injection, schedule: Q01DX009 (ip), vehicle: Klucel (hydroxypropylcellulose) (HPC)); 97 % of control and 91 % of control (endpoint: mean survival time, dose: 100.0 mg/kg/injection, schedule: Q01DX009 (ip), vehicle: Klucel (hydroxypropylcellulose) (HPC)).
As to `Nc1cc(N)c2cccnc2c1O`, the T/C was 101 % of control (endpoint: mean survival time, dose: 2.0 mg/kg/injection, schedule: Q01DX015 (ip), vehicle: saline) and 101 % of control (endpoint: mean survival time, dose: 4.0 mg/kg/injection, schedule: Q01DX015 (ip), vehicle: saline).
